Experimental findings from patent US4588722A, “N-(4-piperidinyl) bicyclic condensed 2-imidazolamine derivatives” (priority 1984, dated 1986) are described below.

For the test, the system named is compound 48/80-induced lethality in rats. The test is described as follows: Protection of rats from compound 48/80-induced lethality. The test is classed as in vivo, rat (male, inbred Wistar strain). Particulars: Rattus norvegicus; test compound subcutaneously or orally (route of each value not given) 1 hour before compound 48/80 0.5 mg/kg intravenously; dose protecting 50% of animals, survival after 4 hours; read-out: Compound 48/80 lethality test in rats-ED50. An excerpt: PROTECTION OF RATS FROM COMPOUND 48/80-INDUCED LETHALITY
Compound 48/80, a mixture of oligomers obtained by condensation of 4-methoxy-N-methylbenzeneethanamine and formaldehyde has been described as a potent histamine releasing agent (Int. Arch. Allergy, 13, 336 (1958)). The protection from compound 48/80-induced lethal circulatory collapse appears to be a simple way of evaluating quantitatively the antihistaminic activity of test compounds. Male rats of an inbred Wistar strain, weighing 240-260 g were used in the experiment. After overnight starvation the rats were transferred to conditioned laboratories (temp.=21±1° C., relative humidity=65±5%). The rats were treated subcutaneously or orally with a test compound or with the solvent (NaCl solution, 0.9%). One hour after treatment there was injected intravenously compound 48/80, freshly dissolved in water, at a dose of 0.5 mg/kg (0.2 ml/100 g of body weight). In control experiments, wherein 250 solvent-treated animals were injected with the standard dose of compound 48/80, not more than 2.8% of the animals survived after 4 hours. Survival after 4 hours is therefore considered to be a safe criterion of a protective effect of drug administration.
Said ED50 -values are the values in mg/kg body weight at which the tested compounds protect 50% of the tested animals against compound 48/80-induced lethality.
In the case of `O=CNCCN1CCC(Nc2nc3ccccc3n2Cc2ccc(F)cc2)CC1` [Compound 45, N-[2-[4-[[1-[(4-fluorophenyl)methyl]-1H-benzimidazol-2-yl]amino]-1-piperidinyl]ethyl]formamide], the ED50 is 0.08 mg/kg.
The figure for `O=CNCCN1CCC(Nc2nc3ccccc3n2Cc2ccco2)CC1` [Compound 46, N-[2-[4-[[1-(2-furanylmethyl)-1H-benzimidazol-2-yl]amino]-1-piperidinyl]ethyl]formamide hemihydrate] is 0.16 mg/kg; for `OCc1ccc(CN2CCC(Nc3nc4ccccc4n3Cc3ccc(F)cc3)CC2)o1` [Compound 47, 5-[[4-[[1-[(4-fluorophenyl)methyl]-1H-benzimdazol-2-yl]amino]-1-piperidinyl]methyl]-2-furanmethanol] it is 0.08 mg/kg.
For the molecule `Fc1ccc(Cn2c(NC3CCN(Cc4ccc(CSCCNc5ncccn5)o4)CC3)nc3ccccc32)cc1` [Compound 50], the ED50 turned out to be 0.16 mg/kg.
With `CC(=O)Nc1ccccc1C(=O)NCCN1CCC(Nc2nc3ccccc3n2Cc2ccc(F)cc2)CC1` [Compound 51, 2-(acetylamino)-N-[2-[4-[[1-[(4-fluorophenyl)methyl]-1H-benzimidazol-2-yl]amino]-1-piperidinyl]ethyl]benzamide], the ED50 came to 0.16 mg/kg.
The figure for `CCN(C(C)=O)c1ccccc1C(=O)NCCN1CCC(Nc2nc3ccccc3n2Cc2ccc(F)cc2)CC1` [Compound 52, 2-(acetylethylamino)-N-[2-[4-[[(1-[(4-fluorophenyl)methyl]-1H-benzimidazol-2yl]amino]-1-piperidinyl]ethyl]benzamide (E) -2-butenedioate(1:2)] is 0.31 mg/kg; for `CS(=O)(=O)Nc1ccc(CCN2CCC(Nc3nc4ccccc4n3Cc3ccc(F)cc3)CC2)cc1` [Compound 53, N-4-[2-[4-[[1-[(4-fluorophenyl)methyl]-1H-benzimidazol-2-yl]amino]-1-piperidinyl]ethyl] methanesulfonamide monohydrate] it is 0.16 mg/kg; for `NC(=O)Nc1ccc(CCN2CCC(Nc3nc4ccccc4n3Cc3ccc(F)cc3)CC2)cc1` [Compound 56] it is 0.04 mg/kg.
With `CNC(=O)Nc1ccc(CCN2CCC(Nc3nc4ccccc4n3Cc3ccc(F)cc3)CC2)cc1` [Compound 57, N-[4-[2-[4-[[1-[(4-fluorophenyl)methyl]-1H-benzimidazol-2-yl]amino]-1-piperidinyl]ethyl]phenyl]-N'methylurea], the ED50 was found to be 0.08 mg/kg.
With `Br.Br.Oc1ccc(CCN2CCC(Nc3nc4ccccc4n3Cc3cscn3)CC2)cc1` [Compound 59, 4-[2-[4-[[1-(4-thiazolylmethyl)-1H-benzimidazol-2-yl]amino]-1-piperidinyl]ethyl]phenol dihydrobromide], the ED50 came to 0.08 mg/kg.
